Reference: patent US4317775A (Hoffmann-La Roche Inc., priority 1980, dated 1982)
In brackets after ≈: the same amount, converted by molar mass. Several values for one entry are separate records, joined by “and”; a condition that tells them apart may be missing. Equal entries are not always repeated. Structures can show the parent of a compound that is named as a salt. Where two headings read alike, the source gives them in different places.

Columns and labels:
[1] = Stability in aqueous solution (percent retention); type: physicochemical; conditions: for Percent Retention: 6 hrs + 5° C., 192 hrs
Method: The stability of the compound was determined in 0.9% saline solution, 5% aqueous dextrose solution and in water, both at room temperature and/or 5° C.

Streptococcus pyogenes = assay: In vitro activity (MIC/MBC), Streptococcus pyogenes; type: cell-based
From the text: (§1) MIC is the Minimum Inhibitory Concentration. MBC is the Minimum Bactericidal Concentration.
(§2) Results reported in Table 3(a) are reported as MIC defined above and results reported in Table 3(b) are reported as MBC defined above.

[2] = test system: Streptococcus pneumoniae I; assay: In vitro activity (MIC/MBC), Streptococcus pneumoniae I; type: cell-based; conditions: for MBC: read-out: Minimum Inhibitory Concentration (MBC)
From the text: as §1, §2

Staphylococcus aureus = assay: In vitro activity (MIC/MBC), Staphylococcus aureus; type: cell-based
From the text: as §1, §2

Escherichia coli = assay: In vitro activity (MIC/MBC), Escherichia coli; type: cell-based
From the text: as §1, §2

Klebsiella pneumoniae = assay: In vitro activity (MIC/MBC), Klebsiella pneumoniae; type: cell-based; conditions: for MIC: read-out: Minimum Inhibitory Concentration (MIC)
From the text: as §1, §2

[3] = test system: Salmonella schottmuelleri; assay: In vitro activity (MIC/MBC), Salmonella schottmuelleri; type: cell-based; conditions: for MBC: Salmonella schottmuelleri, read-out: Minimum Inhibitory Concentration (MBC); for MIC: Salmonella, read-out: Minimum Inhibitory Concentration (MIC)
From the text: as §1, §2

Salmonella typhosa = assay: In vitro activity (MIC/MBC), Salmonella typhosa; type: cell-based; conditions: Salmonella enterica; for MBC: read-out: Minimum Inhibitory Concentration (MBC), MBC, Salmonella typhosa; for MIC: read-out: Minimum Inhibitory Concentration (MIC), Salmonella typhosa
From the text: as §1, §2

S. pyogenes = assay: In vivo activity against systemic infection in mice, S. pyogenes
From the text: (§3) The PD50 is the protective dose for 50% of the animals treated against a challenge organism.

S. pneumoniae I = assay: In vivo activity against systemic infection in mice, S. pneumoniae I
From the text: as §3

E. coli = assay: In vivo activity against systemic infection in mice, E. coli; conditions: in mg/kg
From the text: as §3

K. pneumoniae = assay: In vivo activity against systemic infection in mice, K. pneumoniae; conditions: in mg/kg
From the text: as §3

S. schottmuelleri = assay: In vivo activity against systemic infection in mice, S. schottmuelleri
From the text: as §3

S. typhosa = assay: In vivo activity against systemic infection in mice, S. typhosa
From the text: as §3

S. aureus = assay: In vivo activity against systemic infection in mice, S. aureus; conditions: in mg/kg
From the text: as §3

in vivo = conditions: mouse
Proteus vulgari = assay: In vitro activity (MIC/MBC), Proteus vulgari; type: cell-based
From the text: as §1, §2

[4] = test system: Streptococcus pneumonia II; assay: In vitro activity (MIC/MBC), Streptococcus pneumonia II; type: cell-based; conditions: Streptococcus pneumoniae
From the text: as §1, §2

P. mirabilis = assay: In vivo activity against systemic infection in mice, P. mirabilis; conditions: in mg/kg
From the text: as §3

P. aeruginosa = assay: In vivo activity against systemic infection in mice, P. aeruginosa
From the text: as §3

[5] = 5% dextrose in water, 2.10 mg/ml, RT
[6] = 5% dextrose in water, 2.20 mg/ml, 5° C.
[7] = 5% dextrose in water, 30 mg/ml, RT
[8] = 5% dextrose in water, 33 mg/ml, 5° C.
[9] = aqueous concentrate, 155 mg/ml, 5° C.
[10] = MBC, read-out: Minimum Inhibitory Concentration (MBC)
[11] = read-out: Minimum Inhibitory Concentration (MIC)

CC1(C)S[C@@H]2[C@H](NC(=O)[C@@H](c3ccc(O)cc3)N(C3CCCCO3)C3CCCCO3)C(=O)N2[C@H]1C(=O)O (relative stereo) [Compound II, {2S-[2α,5α,6β(S*)]}-6-[bis(tetrahydro-2-H-pyran-2-yl)amino]{[(4-hydroxyphenyl)acetyl]amino}-3,3-dimethyl-7-oxo-4-thia-1-azabicyclo[3.2.0]heptane3-carboxylic acid sodium salt]
remaining at 24 h ([1]; 0.9% saline, 2.20 mg/ml, 5° C.): 100% | remaining at 48 h ([1]; 0.9% saline, 2.20 mg/ml, 5° C.): 100% | remaining at 6 h ([1]; 0.9% saline, 2.25 mg/ml, RT): 96% | Percent Retention ([1]; 0.9% saline, 2.25 mg/ml, RT): 98% | remaining at 6 h ([1]; 0.9% saline, 2.30 mg/ml, RT): 96% | remaining at 24 h ([1]; 0.9% saline, 2.30 mg/ml, RT): 91% | remaining at 48 h ([1]; 0.9% saline, 2.30 mg/ml, RT): 84% | remaining at 6 h ([1]; 0.9% saline, 29.1 mg/ml, RT): 97% | time for which 90% of potency was maintained ([1]; 0.9% saline, 0.2% solution, 5° C.): ≥ 192 h | time for which 90% of potency was maintained ([1]; 0.9% saline, 0.2% solution, room temperature): about 24 hours | time for which 90% of potency was maintained ([1]; 0.9% saline, 3% solution, 5° C.): ≥ 192 h | time for which 90% of potency was maintained ([1]; 0.9% saline, 3% solution, room temperature): less than 24 hours | remaining at 24 h ([1]; 0.9% saline, 31. mg/ml, 5° C.): 100% | remaining at 48 h ([1]; 0.9% saline, 31. mg/ml, 5° C.): 100% | remaining at 6 h ([1]; 0.9% saline, 34. mg/ml, RT): 97% | remaining at 24 h ([1]; 0.9% saline, 34. mg/ml, RT): 85% | remaining at 48 h ([1]; 0.9% saline, 34. mg/ml, RT): 76% | Percent Retention ([1]; 5% Dextrose in Water, 2.10 mg/ml, RT): 73% | Percent Retention ([1]; 5% Dextrose in Water, 31 mg/ml, RT): 81% | remaining at 6 h [1, 5]: 95% | remaining at 24 h [1, 5]: 89% | remaining at 48 h [1, 5]: 71% | remaining at 24 h [1, 6]: 95% | remaining at 48 h [1, 6]: 91% | remaining at 6 h [1, 7]: 96% | remaining at 24 h [1, 7]: 92% | remaining at 48 h [1, 7]: 83% | remaining at 6 h ([1]; 5% dextrose in water, 31 mg/ml, RT): 100% | remaining at 24 h [1, 8]: 94% | remaining at 48 h [1, 8]: 84% | time for which 90% of potency was maintained ([1]; 5% dextrose in water, 0.2% solution, 5° C.): 48 h | time for which 90% of potency was maintained ([1]; 5% dextrose in water, 0.2% solution, room temperature): about 24 hours | time for which 90% of potency was maintained ([1]; 5% dextrose in water, 3% solution, 5° C.): less than 48 hours | time for which 90% of potency was maintained ([1]; 5% dextrose in water, 3% solution, room temperature): about 24 hours | remaining at 24 h [1, 9]: 100% | remaining at 48 h [1, 9]: 100% | MBC (Streptococcus pyogenes; [10]): 6.31 µg/mL | MIC (Streptococcus pyogenes; [11]): 0.39 µg/mL | MBC [2]: 0.049 µg/mL | MIC [2, 11]: 0.049 µg/mL | MBC (Staphylococcus aureus; [10]): 0.098 µg/mL | MIC (Staphylococcus aureus; [11]): 0.098 µg/mL | MBC (Escherichia coli; [10]): 3.94 µg/mL | MIC (Escherichia coli; [11]): 3.94 µg/mL | MBC (Klebsiella pneumoniae; [10]): 0.98 µg/mL | MIC (Klebsiella pneumoniae): 0.09 µg/mL | MBC [3]: 0.98 µg/mL | MIC [3]: 0.98 µg/mL | MBC (Salmonella typhosa): 0.12 µg/mL | MIC (Salmonella typhosa): 0.12 µg/mL | PD50 (S. pyogenes; oral): 1.9 mg/kg | PD50 (S. pyogenes; subcutaneous): 3.4 mg/kg | PD50 (S. pneumoniae I; oral): 0.7 mg/kg | PD50 (S. pneumoniae I; subcutaneous): 0.7 mg/kg | PD50 (E. coli; oral): 23 | PD50 (E. coli; subcutaneous): 18 | PD50 (K. pneumoniae; oral): 8.6 | PD50 (K. pneumoniae; subcutaneous): 5.7 | PD50 (S. schottmuelleri; oral): 1.9 mg/kg | PD50 (S. schottmuelleri; subcutaneous): 5.7 mg/kg | PD50 (S. typhosa; oral): 3.6 mg/kg | PD50 (S. typhosa; subcutaneous): 1.4 mg/kg | PD50 (S. aureus; subcutaneous): 0.5 | LD50 (in vivo; ip): 6310 mg/kg | LD50 (in vivo; po): > 6310 mg/kg | LD50 (in vivo; sc): 4460 mg/kg

CC1(C)S[C@@H]2[C@H](NC(=O)[C@H](N)c3ccc(O)cc3)C(=O)N2[C@H]1C(=O)O [Amoxicillin, amoxicillin, reference compound]
MBC [2]: 0.024 µg/mL (≈ 0.0657 µM) | MIC (Escherichia coli; [11]): 3.12 µg/mL (≈ 8.55 µM) | MIC (Escherichia coli; read-out: Minimum Inhibitory Concentration (MIC), Escherichia coli): 6.25 µg/mL (≈ 17.1 µM) | MIC (Klebsiella pneumoniae): 0.39 µg/mL (≈ 1.07 µM) | MBC [3]: 0.78 µg/mL (≈ 2.13 µM) | MIC [3]: 0.78 µg/mL (≈ 2.13 µM) | MBC (Salmonella typhosa): 0.39 µg/mL (≈ 1.07 µM) | MIC (Salmonella typhosa): 0.39 µg/mL (≈ 1.07 µM) | MBC (Proteus vulgari; [10]): 0.78 µg/mL (≈ 2.13 µM) | MIC (Proteus vulgari; [11]): 1.56 µg/mL (≈ 4.27 µM) | MBC [4, 10]: 0.049 µg/mL (≈ 0.134 µM) | MIC [4, 11]: 0.024 µg/mL (≈ 0.0657 µM) | PD50 (E. coli; oral): 14.1 and 18.5 and 19.3 and 13.1 | PD50 (E. coli; subcutaneous): 10 and 5.9 and 7.3 and 6.8 | PD50 (K. pneumoniae; subcutaneous): 3.6 and 5 and 3.7 | PD50 (S. aureus; oral): 0.5 and 0.6 | PD50 (S. aureus; subcutaneous): < 0.2 | PD50 (P. mirabilis; oral): 1.8 and 1.1 | PD50 (P. mirabilis; subcutaneous): < 0.5 and 0.6 | PD50 (P. aeruginosa; oral): > 200 mg/kg | PD50 (P. aeruginosa; subcutaneous): > 200 mg/kg | LD50 (Acute toxicity in mice; mice, i.p.): 3535 mg/kg and 3150 mg/kg | LD50 (Acute toxicity in mice; mouse, in vivo, ip, LD50, mice): 3140 mg/kg | LD50 (Acute toxicity in mice; mouse, in vivo, po, LD50, mice): > 10000 mg/kg | LD50 (Acute toxicity in mice; mouse, in vivo, sc, LD50, mice): > 10000 mg/kg
